In ChEMBL document CHEMBL5029155, “Design, Synthesis, and Biological Evaluation of Stable Colchicine-Binding Site Tubulin Inhibitors 6-Aryl-2-benzoyl-pyridines as Potential Anticancer Agents” (J Med Chem, 2021):
Calls of active or inactive are those of the source. The calls are words filed in the database; no cut-off is given here.

Tests used:
[1] = Systemic toxicity in human A375/TxR cells xenografted in SCID mouse tumor model assessed as pathological change in kidney at 10 to 20 mg/kg, ip by H and E staining based analysis; format: organism-based; settings: in vivo, dose 10-20 mg/kg
Salmonella typhimurium [2] = experiment: Mutagenicity in Salmonella typhimurium […] by Ames test; format: toxicity, organism-based; settings: salmonella enterica subsp. enterica serovar typhimurium
A375/TxR [3] = experiment: Induction of cell cycle arrest in human A375/TxR cells assessed as decrease in accumulation at G1 phase measured for 24 hrs by PI staining based flow cytometry analysis; format: functional
Salmonella typhimurium [4] = experiment: Mutagenicity in Salmonella typhimurium TA1537 by Ames test; format: toxicity, organism-based; settings: salmonella enterica subsp. enterica serovar typhimurium
[5] = Clearance in NSG mouse at 10 mg/kg, ip; format: ADME, organism-based; settings: in vivo
CYP3A [6] = experiment: Inhibition of CYP3A in human liver microsomes using testosterone as substrate at 10 uM; format: ADME; settings: probe testosterone
CYP2C9 = CYP2C9 (Homo sapiens, UniProt P11712); experiment: Inhibition of CYP2C9 in human liver microsomes using diclofenac as substrate at 10 uM; format: ADME; settings: probe diclofenac
[7] = Systemic toxicity in human A375/TxR cells xenografted in SCID mouse tumor model assessed as pathological change in heart at 10 to 20 mg/kg, ip by H and E staining based analysis; format: organism-based; settings: in vivo, dose 10-20 mg/kg
CYP2C19 = CYP2C19 (Homo sapiens, UniProt P33261); experiment: Inhibition of CYP2C19 in human liver microsomes using omeprazole as substrate at 10 uM; format: ADME; settings: probe omeprazole
[8] = biological target: T1, CYP1A2 (description prints CYP1AA) (Homo sapiens, UniProt P05177); experiment: Inhibition of […] in human liver microsomes using phenacetin as substrate at 10 uM; format: ADME; settings: probe phenacetin
T1 sequence (P05177 whole entry): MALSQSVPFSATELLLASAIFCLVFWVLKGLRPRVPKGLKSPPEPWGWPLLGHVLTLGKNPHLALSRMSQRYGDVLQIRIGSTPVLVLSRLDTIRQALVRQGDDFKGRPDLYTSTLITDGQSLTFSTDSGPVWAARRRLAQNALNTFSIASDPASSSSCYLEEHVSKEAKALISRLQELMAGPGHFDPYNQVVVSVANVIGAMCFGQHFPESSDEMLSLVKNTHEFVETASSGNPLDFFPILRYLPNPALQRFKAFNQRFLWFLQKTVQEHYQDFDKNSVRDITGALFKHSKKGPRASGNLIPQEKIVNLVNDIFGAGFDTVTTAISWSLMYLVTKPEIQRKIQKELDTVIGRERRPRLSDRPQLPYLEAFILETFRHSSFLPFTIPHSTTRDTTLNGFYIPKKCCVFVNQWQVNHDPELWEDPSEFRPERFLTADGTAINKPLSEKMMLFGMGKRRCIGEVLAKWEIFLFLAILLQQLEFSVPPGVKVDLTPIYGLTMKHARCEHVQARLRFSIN

[9] = Cmax in NSG mouse at 10 mg/kg, ip; format: ADME, organism-based; set-up: route intraperitoneal, dose 10 mg/kg; settings: in vivo
Salmonella typhimurium [10] = experiment: Mutagenicity in Salmonella typhimurium TA1535 by Ames test; format: toxicity, organism-based; settings: salmonella enterica subsp. enterica serovar typhimurium
A375/TxR [11] = experiment: Induction of cell cycle arrest in human A375/TxR cells assessed as accumulation at G2/M phase measured for 24 hrs by PI staining based flow cytometry analysis; format: functional
[12] = Anticlonogenic activity against paclitaxel resistant human A-375 cells assessed as inhibition of colony formation at 5 nM treated for 7 days by crystal violet staining based microscopic analysis; format: functional, A375/TxR; set-up: scale not given: the % may be the effect or the level left; settings: time 7 day
MDA-MB-231 = experiment: Cytotoxicity against human MDA-MB-231 cells measured after 72 hrs […]; format: functional, cell-based; settings: MDA-MB-231, 72 h
CYP2B6 = biological target: T2, CYP2B6 (Homo sapiens, UniProt P20813); experiment: Inhibition of CYP2B6 in human liver microsomes using bupropion as substrate at 10 uM; format: ADME; settings: probe bupropion
T2 sequence (P20813 whole entry): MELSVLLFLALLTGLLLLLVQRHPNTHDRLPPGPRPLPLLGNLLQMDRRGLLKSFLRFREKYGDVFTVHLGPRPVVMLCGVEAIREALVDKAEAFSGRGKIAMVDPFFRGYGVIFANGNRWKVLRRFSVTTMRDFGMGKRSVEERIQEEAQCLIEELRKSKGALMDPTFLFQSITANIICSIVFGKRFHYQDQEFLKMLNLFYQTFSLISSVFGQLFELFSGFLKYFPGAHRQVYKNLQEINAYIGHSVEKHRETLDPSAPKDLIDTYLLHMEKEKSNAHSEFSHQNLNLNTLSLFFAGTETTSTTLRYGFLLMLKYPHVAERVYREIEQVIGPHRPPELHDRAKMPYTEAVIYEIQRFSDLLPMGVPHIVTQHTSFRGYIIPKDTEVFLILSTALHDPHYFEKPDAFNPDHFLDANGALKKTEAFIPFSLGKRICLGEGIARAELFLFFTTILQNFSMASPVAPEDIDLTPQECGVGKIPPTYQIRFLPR

[13] = Metabolic stability in human liver microsomes assessed as intrinsic clearance in presence of NADPH regenerating system by UPLC-MS analysis; format: ADME, Microsome; settings: read-out: CLH
A375/TxR [14] = experiment: Antimetastatic activity against human A375/TxR cells xenografted in SCID mouse assessed as metastatic in lungs; format: functional
CYP3A [15] = experiment: Inhibition of CYP3A in human liver microsomes using midazolam as substrate at 10 uM; format: ADME; settings: probe midazolam
hERG (KCNH2) = hERG (KCNH2) (Homo sapiens, UniProt Q12809); experiment: Inhibition of human ERG at 10 uM
[16] = Induction of apoptosis in human A375/TxR cells assessed as apoptotic cells at 5 nM measured for 24 hrs by annexin VFITC /PI staining based analysis (reference value: […]); format: functional
A375/TxR [17] = experiment: Induction of cell cycle arrest in human A375/TxR cells assessed as decrease in accumulation at S phase measured for 24 hrs by PI staining based flow cytometry analysis; format: functional
M14 = experiment: Cytotoxicity against human M14 cells measured after 72 hrs […]; format: functional, cell-based; settings: M14, 72 h
[18] = Induction of apoptosis in human A375/TxR cells assessed as apoptotic cells at 2.5 nM measured for 24 hrs by annexin VFITC /PI staining based analysis (reference value: […]); format: functional
A-375 = experiment: Antiproliferative activity against human A-375 cells assessed as cell growth inhibition incubated for 72 hrs by MTS assay; format: functional, cell-based; settings: A-375, 72 h
A375/TxR [19] = experiment: Antimetastatic activity against human A375/TxR cells xenografted in SCID mouse assessed as metastatic in liver at 20 mg/kg, ip; format: functional, organism-based
CYP2D6 = CYP2D6 (Homo sapiens, UniProt P10635); experiment: Inhibition of CYP2D6 in human liver microsomes using dextromethorphan as substrate at 10 uM; format: ADME; settings: probe dextromethorphan
[20] = Systemic toxicity in human A375/TxR cells xenografted in SCID mouse tumor model assessed as pathological change in lungs at 10 to 20 mg/kg, ip by H and E staining based analysis; format: organism-based; settings: in vivo, dose 10-20 mg/kg
[21] = AUClast in NSG mouse at 10 mg/kg, ip; format: ADME, organism-based; set-up: time 0 - last, route intraperitoneal, dose 10 mg/kg; settings: in vivo
[22] = Systemic toxicity in human A375/TxR cells xenografted in SCID mouse tumor model assessed as pathological change in spleen at 10 to 20 mg/kg, ip by H and E staining based analysis; format: organism-based; settings: in vivo, dose 10-20 mg/kg

hERG (KCNH2), sequence (Q12809 whole entry): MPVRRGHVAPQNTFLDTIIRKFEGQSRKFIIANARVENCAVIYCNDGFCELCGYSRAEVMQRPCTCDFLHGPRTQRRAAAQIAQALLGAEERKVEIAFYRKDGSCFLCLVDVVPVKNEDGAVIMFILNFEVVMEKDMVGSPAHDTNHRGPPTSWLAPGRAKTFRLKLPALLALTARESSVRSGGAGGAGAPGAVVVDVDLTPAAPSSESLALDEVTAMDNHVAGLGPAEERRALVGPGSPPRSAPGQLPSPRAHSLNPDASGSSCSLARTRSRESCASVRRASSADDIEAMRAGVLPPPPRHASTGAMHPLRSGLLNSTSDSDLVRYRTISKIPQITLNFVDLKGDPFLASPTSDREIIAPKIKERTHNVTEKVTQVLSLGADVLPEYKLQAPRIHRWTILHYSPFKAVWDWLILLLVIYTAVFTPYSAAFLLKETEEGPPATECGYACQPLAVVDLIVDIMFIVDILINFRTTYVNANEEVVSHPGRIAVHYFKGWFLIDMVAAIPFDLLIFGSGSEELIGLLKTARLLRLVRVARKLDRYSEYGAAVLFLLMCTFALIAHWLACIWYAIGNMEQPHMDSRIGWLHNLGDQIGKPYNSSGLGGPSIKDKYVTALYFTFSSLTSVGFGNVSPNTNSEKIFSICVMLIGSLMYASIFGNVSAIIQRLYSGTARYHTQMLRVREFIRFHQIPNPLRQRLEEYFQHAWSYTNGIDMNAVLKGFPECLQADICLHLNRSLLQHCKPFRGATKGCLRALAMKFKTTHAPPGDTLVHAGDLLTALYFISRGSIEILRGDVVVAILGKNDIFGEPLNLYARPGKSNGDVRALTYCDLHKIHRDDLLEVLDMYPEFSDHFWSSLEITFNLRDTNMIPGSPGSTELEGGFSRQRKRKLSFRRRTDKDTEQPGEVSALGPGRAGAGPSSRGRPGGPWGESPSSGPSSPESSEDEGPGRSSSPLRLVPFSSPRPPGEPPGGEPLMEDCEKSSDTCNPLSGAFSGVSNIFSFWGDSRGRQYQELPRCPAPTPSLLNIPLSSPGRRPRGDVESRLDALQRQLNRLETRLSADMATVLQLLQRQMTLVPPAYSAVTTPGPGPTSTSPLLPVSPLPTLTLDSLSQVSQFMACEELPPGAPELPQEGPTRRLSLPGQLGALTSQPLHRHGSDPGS
CYP2D6, sequence (P10635 whole entry): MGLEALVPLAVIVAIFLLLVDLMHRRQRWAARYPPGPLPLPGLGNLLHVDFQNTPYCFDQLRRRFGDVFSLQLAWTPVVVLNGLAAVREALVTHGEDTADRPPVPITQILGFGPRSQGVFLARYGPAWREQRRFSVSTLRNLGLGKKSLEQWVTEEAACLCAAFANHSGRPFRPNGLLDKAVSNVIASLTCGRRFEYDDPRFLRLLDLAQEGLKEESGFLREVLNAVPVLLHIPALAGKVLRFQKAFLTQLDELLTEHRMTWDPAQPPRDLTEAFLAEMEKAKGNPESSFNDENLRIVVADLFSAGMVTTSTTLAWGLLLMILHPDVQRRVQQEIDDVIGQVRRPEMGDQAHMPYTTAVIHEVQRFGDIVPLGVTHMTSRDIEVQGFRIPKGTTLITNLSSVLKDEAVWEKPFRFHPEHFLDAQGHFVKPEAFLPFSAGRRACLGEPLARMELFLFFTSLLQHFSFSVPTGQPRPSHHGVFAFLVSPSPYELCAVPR
CYP2C19, sequence (P33261 whole entry): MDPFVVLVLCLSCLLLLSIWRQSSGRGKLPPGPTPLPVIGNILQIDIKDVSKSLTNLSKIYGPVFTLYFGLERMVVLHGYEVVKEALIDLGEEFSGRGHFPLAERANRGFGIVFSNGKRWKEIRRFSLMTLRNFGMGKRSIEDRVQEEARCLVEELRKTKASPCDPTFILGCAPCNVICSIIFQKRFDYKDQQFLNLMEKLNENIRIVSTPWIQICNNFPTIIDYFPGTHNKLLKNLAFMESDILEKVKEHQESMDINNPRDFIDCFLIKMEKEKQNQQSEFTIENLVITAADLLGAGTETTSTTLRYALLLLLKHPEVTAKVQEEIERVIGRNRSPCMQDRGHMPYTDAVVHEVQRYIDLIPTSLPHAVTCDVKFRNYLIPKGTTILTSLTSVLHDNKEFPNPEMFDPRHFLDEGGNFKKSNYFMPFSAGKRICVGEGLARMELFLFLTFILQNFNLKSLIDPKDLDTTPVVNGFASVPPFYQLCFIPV
CYP2C9, sequence (P11712 whole entry): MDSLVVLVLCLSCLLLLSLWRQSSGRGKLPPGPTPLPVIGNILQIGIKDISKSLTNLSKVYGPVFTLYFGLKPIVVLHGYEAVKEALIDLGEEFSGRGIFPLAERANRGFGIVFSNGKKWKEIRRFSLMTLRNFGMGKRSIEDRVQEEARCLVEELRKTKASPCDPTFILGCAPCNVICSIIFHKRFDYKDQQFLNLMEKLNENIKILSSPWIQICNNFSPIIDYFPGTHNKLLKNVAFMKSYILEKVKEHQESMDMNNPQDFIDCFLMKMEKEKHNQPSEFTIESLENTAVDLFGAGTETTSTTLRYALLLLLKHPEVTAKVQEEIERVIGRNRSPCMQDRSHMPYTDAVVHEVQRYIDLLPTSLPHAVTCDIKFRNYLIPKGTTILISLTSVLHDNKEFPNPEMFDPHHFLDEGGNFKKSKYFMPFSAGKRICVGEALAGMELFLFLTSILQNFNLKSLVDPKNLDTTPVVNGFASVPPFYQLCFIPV

CL/F [5]: 34.1 mL/min/kg
inhibition at 10 µM (CYP3A [6]): 51.8%
inhibition at 10 µM (CYP2C9): 54.7%
inhibition at 10 µM (CYP2C19): 49%
inhibition at 10 µM [8]: 50.9%
Cmax [9]: 6210 ng/mL
inhibition at 10 µM (CYP2B6): 12%
CLint scaled [13]: 42.3 mL/min/kg
inhibition at 10 µM (CYP3A [15]): 34.7%
IC50 (A-375): 1.8 nM
inhibition at 10 µM (CYP2D6): 11.9%
AUClast [21]: 4872.07 h/ng/mL
SMILES: COc1cc(C(=O)c2nc(-c3ccc(C)c(O)c3)ccc2F)cc(OC)c1OC
Activity [1]: Non-Toxic
Activity (Salmonella typhimurium [2]): Non-Toxic
Activity (A375/TxR [3]): Dose-Dependent Effect
Activity (Salmonella typhimurium [4]): Non-Toxic
Activity [7]: Non-Toxic
Activity (Salmonella typhimurium [10]): Non-Toxic
Activity (A375/TxR [11]): Dose-Dependent Effect
Activity [12]: 95%
IC50 (MDA-MB-231): 5.8 nM
Activity (A375/TxR [14]): Dose-Dependent Effect
inhibition at 10 µM (hERG (KCNH2)): 5.14%
Activity [16]: 45.4%
Activity (A375/TxR [17]): Dose-Dependent Effect
IC50 (M14): 2.8 nM
Activity [18]: 14.5%
Activity (A375/TxR [19]): inactive
Activity [20]: Non-Toxic
Activity [22]: Non-Toxic
